These are literature values, as cited in patent US20110130710A1, “TREATMENT OF ABNORMAL OR EXCESSIVE SCARS” (priority 2007, published 2011).

For series [1] the following is noted: applied topically.
Another series relates to epithelial tissue. To be noted: about 50 μl, topical application.

For platelet derived growth factor [PDGF], the “effective dose of PDGF” value in series [1] is on record as no less than 5 ng/mm^2.

B1: keratinocyte growth factor (protein, UniProt P21781 32-194, looked up)
Fibroblast growth factor 7: CNDMTPEQMATNVNCSSPERHTRSYDYMEGGDIRVRRLFCRTQWYLRIDKRGKVKGTQEMKNNYNIMEIRTVAVGIVAIKGVESEFYLAMNKEGKLYAKKECNEDCNFKELILENHYNTYASAKWTHNGGEMFVALNQKGIPVRGKKTKKEQKTAHFLPMAIT
notes: growth factor useful for wound healing
Regarding B1, the “concentration of KGF that may be effective for wound healing” value in the series on epithelial tissue is on record as “about 5 μg/ml”.
